Test results taken from patent US9783530B2, “Factor Xla inhibitors” (Merck Sharp & Dohme Corp., priority 2014, dated 2017).
pIC50: −log10 of the molar value.

Tests used:
[1] = biological target: purified Human plasma kallikrein (Homo sapiens (Human), UniProt P03952); assay: Kallikrein Assay; assay type: biochemical; settings: purified Human plasma kallikrein 0.5 nM, substrate Acetyl-K-P-R-AFC, pH 7.4; read-out: P. KLK IC50
Protocol: (§1) The effectiveness of a compound of the present invention as an inhibitor of Kallikrein can be determined using a relevant purified serine protease, and an appropriate synthetic substrate. The rate of hydrolysis of the chromogenic or fluorogenic substrate by the relevant serine protease was measured both in the absence and presence of compounds of the present invention. Assays were conducted at room temperature or at 37° C. […] A decrease in the rate of fluorescence change in the presence of inhibitor is indicative of enzyme inhibition. Such methods are known to one skilled in the art. The results of this assay are expressed as the inhibitory constant, Ki.
Kallikrein determinations were made in 50 mM HEPES buffer at pH 7.4 containing 150 mM NaCl, 5 mM CaCl2, and 0.1% PEG 8000 (polyethylene glycol; Fisher Scientific). Determinations were made using purified Human plasma kallikrein at a final concentration of 0.5 nM (Enzyme Research Laboratories) and the synthetic substrate, Acetyl-K-P-R-AFC (Sigma # C6608) at a concentration of […].
Activity assays were performed by diluting a stock solution of substrate at least tenfold to a final concentration ≦0.2 Km into a solution containing enzyme or enzyme equilibrated with inhibitor. Times required to achieve equilibration between enzyme and inhibitor were determined in control experiments. The reactions were performed under linear progress curve conditions and fluorescence increase measured at 405 Ex/510 Em nm. Values were converted to percent inhibition of the control reaction (after subtracting 100% Inhibition value). IC50 was determined by inflection point from a four parameter logistic curve fit. Ki was calculated using the Cheng Prusoff equation, Ki=IC50/(1+([S]/Km)).

[2] = biological target: purified human Factor XIa (Homo sapiens (Human), UniProt P03951); assay: Factor XIa Assay; assay type: biochemical; settings: purified human Factor XIa 40 pM, substrate Z-Gly-Pro-Arg-AFC, pH 7.4; read-out: FXIa IC50
Sequence of purified human Factor XIa (P03951 388-625): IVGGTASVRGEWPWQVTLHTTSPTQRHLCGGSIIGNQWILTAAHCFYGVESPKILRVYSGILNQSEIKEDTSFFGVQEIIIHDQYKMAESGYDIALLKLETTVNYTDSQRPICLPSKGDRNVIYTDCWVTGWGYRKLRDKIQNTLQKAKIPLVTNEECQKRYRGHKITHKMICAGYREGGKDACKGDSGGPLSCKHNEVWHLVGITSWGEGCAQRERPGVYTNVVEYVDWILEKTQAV
Sequence of purified human Factor XIa (P03951 19-387 partner): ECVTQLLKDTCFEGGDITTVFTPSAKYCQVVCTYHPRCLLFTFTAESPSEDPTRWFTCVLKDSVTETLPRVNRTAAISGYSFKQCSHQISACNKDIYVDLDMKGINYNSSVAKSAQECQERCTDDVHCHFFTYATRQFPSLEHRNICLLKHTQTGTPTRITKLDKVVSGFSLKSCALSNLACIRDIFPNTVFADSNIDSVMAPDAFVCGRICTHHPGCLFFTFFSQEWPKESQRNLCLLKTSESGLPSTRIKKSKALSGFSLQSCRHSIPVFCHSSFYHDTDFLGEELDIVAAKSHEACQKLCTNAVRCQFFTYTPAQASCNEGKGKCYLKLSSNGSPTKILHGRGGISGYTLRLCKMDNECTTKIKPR
Protocol: as §1, with “Coagulation Factor XIa” for “Kallikrein”, “The results of this assay are expressed as the inhibitory constant, Ki.” left out
Factor XIa determinations were made in 50 mM HEPES buffer at pH 7.4 containing 150 mM NaCl, 5 mM CaCl2, and 0.1% PEG 8000 (polyethylene glycol; JT Baker or Fisher Scientific). Determinations were made using purified human Factor XIa at a final concentration of 40 pM (Sekisui Diagnostics) and he synthetic substrate, Z-Gly-Pro-Arg-AFC, TFA salt (Sigma #C0980) at a concentration of 100 µM.
Activity assays were performed by diluting a stock solution of substrate at least tenfold to a final concentration ≦0.1 Km into a solution containing enzyme or enzyme equilibrated with inhibitor. Times required to achieve equilibration between enzyme and inhibitor were determined in control experiments. Initial velocities of product formation in the absence (Vo) or presence of inhibitor (Vi) were measured. Assuming competitive inhibition, and that unity is negligible compared Km/[S], [I]/e, and [I]/e (where [S], [I], and e respectively represent the total concentrations, of substrate, inhibitor and enzyme), the equilibrium constant (Ki) for dissociation of the inhibitor from the enzyme can be obtained from the dependence of Vo/Vi on [I] shown in the following equation.

Sequence of purified Human plasma kallikrein (P03952 391-638): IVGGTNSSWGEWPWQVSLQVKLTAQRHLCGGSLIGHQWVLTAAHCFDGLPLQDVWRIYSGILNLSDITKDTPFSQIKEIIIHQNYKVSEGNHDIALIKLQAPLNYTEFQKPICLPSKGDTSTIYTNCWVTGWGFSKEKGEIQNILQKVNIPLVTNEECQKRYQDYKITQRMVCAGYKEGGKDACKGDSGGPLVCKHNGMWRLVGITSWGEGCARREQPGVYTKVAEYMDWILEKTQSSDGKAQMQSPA
Sequence of purified Human plasma kallikrein (P03952 20-390 partner): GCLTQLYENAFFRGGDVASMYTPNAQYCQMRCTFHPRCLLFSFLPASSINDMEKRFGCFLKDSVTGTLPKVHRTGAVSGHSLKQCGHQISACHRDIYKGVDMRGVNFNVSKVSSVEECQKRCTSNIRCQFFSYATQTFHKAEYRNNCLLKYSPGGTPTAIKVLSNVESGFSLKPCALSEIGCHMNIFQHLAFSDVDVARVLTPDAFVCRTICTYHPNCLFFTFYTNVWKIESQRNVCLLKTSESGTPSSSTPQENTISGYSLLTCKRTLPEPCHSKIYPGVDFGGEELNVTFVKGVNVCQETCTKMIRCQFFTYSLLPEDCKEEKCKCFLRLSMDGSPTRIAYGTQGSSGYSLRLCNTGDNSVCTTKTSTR

pIC50 [1]	pIC50 [2]	Compound
7.08	7.49	O=C(O)c1ccc(NC(=O)[C@@H](Cc2ccccc2)c2ccc(-c3cc(Cl)ccc3-n3cnnn3)c[n+]2[O-])cc1 [Example 1, 4-{[(2S)-2-{5-[5-chloro-2-(1H-tetrazol-1-yl)phenyl]-1-oxidopyridin-2-yl}-3-phenylpropanoyl]amino} benzoic acid]
8.92	9.80	O=C(O)c1ccc(NC(=O)[C@H](Cc2ccccc2)c2ccc(-c3cc(Cl)ccc3-n3cnnn3)c[n+]2[O-])cc1 [Example 2, 4-{[(2R)-2-{5-[5-chloro-2-(1H-tetrazol-1-yl)phenyl]-1-oxidopyridin-2-yl}-3-phenylpropanoyl]amino} benzoic acid]
7.74	8.44	O=C(O)c1ccc(NC(=O)[C@H](Cc2ccccc2)c2ccc(-c3c(F)ccc(Cl)c3F)c[n+]2[O-])cc1 [Example 4, 4-({(2R)-2-[5-(3-chloro-2,6-difluorophenyl)-1-oxidopyridin-2-yl]-3-phenylpropanoyl}amino) benzoic acid]
7.17	7.85	O=C(O)c1ccc(NC(=O)[C@@H](Cc2ccc(F)cc2)c2ccc(-c3cc(Cl)ccc3-n3cnnn3)c[n+]2[O-])cc1 [Example 7, 4-{[(2S)-2-{5-[5-chloro-2-(1H-tetrazol-1-yl)phenyl]-1-oxidopyridin-2-yl}-3-(4-fluorophenyl)propanoyl]amino}benzoic acid]
8.47	9.59	O=C(O)c1ccc(NC(=O)[C@H](Cc2ccc(F)cc2)c2ccc(-c3cc(Cl)ccc3-n3cnnn3)c[n+]2[O-])cc1 [Example 8, 4-{[(2R)-2-{5-[5-chloro-2-(1H-tetrazol-1-yl)phenyl]-1-oxidopyridin-2-yl}-3-(4-fluorophenyl)propanoyl]amino}benzoic acid]
5.80	7.05	O=C(Cc1ccc(-c2c(F)ccc(Cl)c2F)c[n+]1[O-])Nc1ccc(C(=O)O)cc1 [Example 9, 4-({[5-(3-chloro-2,6-difluorophenyl)-1-oxidopyridin-2-yl]acetyl}amino) benzoic acid]
5.87	7.73	O=C(Cc1ccc(-c2cc(Cl)ccc2-n2cnnn2)c[n+]1[O-])Nc1ccc(C(=O)O)cc1 [Example 14, 4-[({5-[5-chloro-2-(1H-tetrazol-1-yl)phenyl]-1-oxidopyridin-2-yl}acetyl)amino] benzoic acid]
7.37	8.08	Cc1cc(C(Cc2ccccc2)C(=O)Nc2ccc(C(=O)O)cc2)[n+]([O-])cc1-c1c(F)ccc(Cl)c1F (centres unmarked) [Example 25, 2-(1-((4-carboxyphenyl)amino)-1-oxo-3-phenylpropan-2-yl)-5-(3-chloro-2,6-difluorophenyl)-4-methylpyridine 1-oxide]
7.62	9.85	O=C(O)c1ccc(NC(=O)[C@H](CC2CC2)c2ccc(-c3cc(Cl)ccc3-n3cnnn3)c[n+]2[O-])cc1 [Example 27, 4-{[(2R)-2-{5-[5-chloro-2-(1H-tetrazol-1-yl)phenyl]-1-oxidopyridin-2-yl}-3-cyclopropylpropanoyl]amino}benzoic acid]
5.23	7.43	O=C(O)c1ccc(NC(=O)[C@@H](CC2CC2)c2ccc(-c3cc(Cl)ccc3-n3cnnn3)c[n+]2[O-])cc1 [Example 28, 4-{[(2S)-2-{5-[5-chloro-2-(1H-tetrazol-1-yl)phenyl]-1-oxidopyridin-2-yl}-3-cyclopropylpropanoyl]amino}benzoic acid]
